Source: patent publication US20090023186A1, “USE OF VALPROIC ACID FOR ENHANCING PRODUCTION OF RECOMBINANT PROTEINS IN MAMMALIAN CELLS” (EXCELLGENE SA, priority 2007, published 2009)

System: CHO DG44 cells
Assay: Combination with IDMTs, IgG batch yield by ELISA (Example 6)
Type: cell-based, Chinese Hamster
Conditions: VPA 0.5 mmol/l; no addition = 100%; day 5 after transfection
Description: 10 million suspension-adapted HEK293E cells were resuspended in 0.5 ml of Ex-Cell 293 HEK 293 serum-free medium with 4 mmol/l L-glutamine (Cat. No. 14571C-[…]; Lot No. 6A0093; SAFC Biosciences, Lenexa, Kans., USA, “Ex-Cell” medium; note: “Ex-Cell” medium-as used herein-refers to a medium comprising 4 mmol/l L-glutamine) in a 50-ml filter tube each (TPP AG, Trasadingen, Switzerland; Cat. No. 87050, Lot 20050174). In a separate set, 10 million suspension-adapted CHO DG44 cells were resuspended in 0.5 ml of ProCHO5 serum-free medium with 4 mmol/[…] hypoxanthine and 0.194 g/l thymidine (BioWhittaker (Lonza), Belgium; Cat. No. BE12-[…]; Lot No. 7MB0040; “ProCHO5” medium; note: “ProCHO5” medium-as used herein-refers to a medium comprising 4 mmol/[…] hypoxanthine and 0.194 g/l thymidine) in a 50-ml filter tube each (TPP AG, Trasadingen, Switzerland; Cat. No. 87050, Lot 20050174). Then 12.5 μg plasmid DNA at a concentration of 1 μg/μl was added in each tube with the following composition 50% (6.25 μg) p-LC (SEQ ID NO: 1) 50% (6.25 μg) p-HC (SEQ ID NO: 3). Plasmid p-LC comprises the genetic information for the production of the light chain of an IgG antibody, plasmid p-HC comprises the genetic information for the production of the heavy chain of an IgG antibody. The particular vector constructs used in the present invention can also be obtained from the inventors. The inventors can be contacted via e-mail at […]. Moreover, commercial services do exist that produce any desired nucleotide sequence even comprising several kilobase pairs including complete expression cassettes in plasmid backgrounds (e.g., Invitrogen, Carlsbad, USA; Geneart, Germany.) Thus, providing the genetic sequence information of the plasmids should enable one of ordinary skill in the art to order the plasmids of the present invention at one of the commercial services listed. After shortly mixing the DNA with the cells by gentle shaking, 25 μg of 25-kd linear polyethyleneimine (“PEI”; Polysciences, Eppelheim, Germany; [2]) were added at a concentration of 1 μg/μl to each of the tubes. After shortly mixing by gentle shaking, the filter tubes containing the cells together with the DNA and PEI were transferred into an orbital shaker (Kühner Shaker Cabinet ISF-4-W, “Kühner shaker”, Kühner AG, Birsfelden, Switzerland), and the cells were incubated for 4 hours at 37° C. in a 5% CO2 atmosphere under shaking at 180 rpm. After that time, 4.5 ml of Ex-Cell medium were added to each of the filter tubes containing HEK 293 cells and 4.5 ml of Pro-CHO5 were added to each of the filter tubes containing CHO DG44 cells. Then, valproic acid was added to each of the tubes at the corresponding final concentration. In addition, the following chemicals were added to the corresponding tubes at a final concentration of: […] Azacytidine was purchased from Sigma-Aldrich Chemie GmbH, Industriestrasse 25, CH-9471 Buchs SG, Catalog Number A1287-1 VL. RG108 was purchased from Sigma-Aldrich Chemie GmbH, Industriestrasse 25, CH-9471 Buchs SG, Catalog Number R8279-10MG. The cells then were returned into the Kuhner shaker and incubated at 37° C. in a 5% CO2 atmosphere under shaking at 180 rpm. […] In short, Goat anti-human kappa light chain IgG (Biosource) was used for coating the ELISA-plates, and with AP-conjugated goat anti-human gamma chain IgG (Biosource) the synthesized IgG1 was detected. […] Absorption was measured at 405 nm against 490 nm using a microplate reader (SPECTRAmaxTM340; Molecular Devices, Palo Alto, Calif., USA).

CCCC(CCC)C(=O)O [VPA, valproic acid]
Fold increase in batch yield over control: 170% ± 20%
